This is an account of results in ChEMBL document CHEMBL1158018 (J Nat Prod, 1999).

What is called IC50 is the midpoint of a concentration-inhibition curve.

Assay [1] can be described thus: Antioxidant activity in liposomal model assessed as inhibition of ferrous ion-induced lipid peroxidation at 2 mM. The assay is classed as functional. Set-up: scale not given: the % may be the effect or the level left.
In assay [2] the target is Prostaglandin G/H synthase 1 (Homo sapiens, UniProt P23219). As to the kind of experiment: Inhibition of PGHS1 assessed as conversion of arachidonic acid to prostaglandin.
Chain of Prostaglandin G/H synthase 1 (P23219 whole entry): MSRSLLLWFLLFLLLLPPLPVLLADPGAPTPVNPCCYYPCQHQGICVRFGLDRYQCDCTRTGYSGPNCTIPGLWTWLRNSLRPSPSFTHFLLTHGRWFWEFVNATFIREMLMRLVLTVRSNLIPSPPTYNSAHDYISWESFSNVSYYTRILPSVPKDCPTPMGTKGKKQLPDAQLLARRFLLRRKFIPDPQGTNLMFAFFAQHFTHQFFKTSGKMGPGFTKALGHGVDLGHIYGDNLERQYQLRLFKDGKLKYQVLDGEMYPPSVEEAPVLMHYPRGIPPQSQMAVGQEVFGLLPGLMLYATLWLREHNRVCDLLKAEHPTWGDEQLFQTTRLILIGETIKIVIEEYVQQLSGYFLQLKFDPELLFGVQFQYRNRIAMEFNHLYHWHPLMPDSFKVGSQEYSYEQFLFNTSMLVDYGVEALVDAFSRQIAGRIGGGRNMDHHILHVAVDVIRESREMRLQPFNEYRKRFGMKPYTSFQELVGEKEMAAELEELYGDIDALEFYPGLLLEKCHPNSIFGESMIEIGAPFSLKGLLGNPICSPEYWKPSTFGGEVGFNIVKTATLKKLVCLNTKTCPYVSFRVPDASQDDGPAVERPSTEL

As for `Oc1cc(O)c2cc(O)c(-c3ccc(O)c(O)c3)[o+]c2c1` [CYANIDIN], the Activity in assay [1] is 57%. Also, in assay [2], the IC50 is 90 µM.
